The target in the assay is EGFR WT (Homo sapiens (Human), UniProt P00533). As to the kind of experiment: ErbB enzyme assay (CisBio HTRF-KinEASE-TK), EGFR WT. Format: biochemical. As to conditions: ATP at Km (25 μM), 1 h incubation. How it is done:
In vitro enzyme assays based on CisBio HTRF-KinEASE-TK technology were used to determine compound potencies. […]. Compounds were prepared as a three-fold serial dilution in DMSO and added to the assay to give the appropriate final concentration. After a 1 h incubation at ambient temperature, the reaction was quenched by adding 10 μL of 62.5 nM Sa-XL665 and 0.25×TK-Ab-Cryptate in HTRF detection buffer (all from CisBio, part of cat #62TKOPEC). After another 1 h incubation at ambient temperature, the extent of substrate phosphorylation was determined using a PerkinElmer EnVision multimode plate reader via time-resolved fluorescence dual wavelength detection. The percent of control (POC) was calculated using the ratio of emission at […] to the emission at 620 nm. One hundred POC was determined using DMSO only controls (no test compounds present) and zero POC was determined using pre-quenched controls reactions. A 4-parameter logistic equation was fit to the POC values as a function of the test compound concentration and the IC50 value was determined as the point where the curve crossed 50 POC.
In general terms: TR-FRET usually uses a lanthanide donor and a delayed reading to cut background.

Where a name gives a salt, the structure may show the parent alone.

Sequence of EGFR WT (P00533 25-1210): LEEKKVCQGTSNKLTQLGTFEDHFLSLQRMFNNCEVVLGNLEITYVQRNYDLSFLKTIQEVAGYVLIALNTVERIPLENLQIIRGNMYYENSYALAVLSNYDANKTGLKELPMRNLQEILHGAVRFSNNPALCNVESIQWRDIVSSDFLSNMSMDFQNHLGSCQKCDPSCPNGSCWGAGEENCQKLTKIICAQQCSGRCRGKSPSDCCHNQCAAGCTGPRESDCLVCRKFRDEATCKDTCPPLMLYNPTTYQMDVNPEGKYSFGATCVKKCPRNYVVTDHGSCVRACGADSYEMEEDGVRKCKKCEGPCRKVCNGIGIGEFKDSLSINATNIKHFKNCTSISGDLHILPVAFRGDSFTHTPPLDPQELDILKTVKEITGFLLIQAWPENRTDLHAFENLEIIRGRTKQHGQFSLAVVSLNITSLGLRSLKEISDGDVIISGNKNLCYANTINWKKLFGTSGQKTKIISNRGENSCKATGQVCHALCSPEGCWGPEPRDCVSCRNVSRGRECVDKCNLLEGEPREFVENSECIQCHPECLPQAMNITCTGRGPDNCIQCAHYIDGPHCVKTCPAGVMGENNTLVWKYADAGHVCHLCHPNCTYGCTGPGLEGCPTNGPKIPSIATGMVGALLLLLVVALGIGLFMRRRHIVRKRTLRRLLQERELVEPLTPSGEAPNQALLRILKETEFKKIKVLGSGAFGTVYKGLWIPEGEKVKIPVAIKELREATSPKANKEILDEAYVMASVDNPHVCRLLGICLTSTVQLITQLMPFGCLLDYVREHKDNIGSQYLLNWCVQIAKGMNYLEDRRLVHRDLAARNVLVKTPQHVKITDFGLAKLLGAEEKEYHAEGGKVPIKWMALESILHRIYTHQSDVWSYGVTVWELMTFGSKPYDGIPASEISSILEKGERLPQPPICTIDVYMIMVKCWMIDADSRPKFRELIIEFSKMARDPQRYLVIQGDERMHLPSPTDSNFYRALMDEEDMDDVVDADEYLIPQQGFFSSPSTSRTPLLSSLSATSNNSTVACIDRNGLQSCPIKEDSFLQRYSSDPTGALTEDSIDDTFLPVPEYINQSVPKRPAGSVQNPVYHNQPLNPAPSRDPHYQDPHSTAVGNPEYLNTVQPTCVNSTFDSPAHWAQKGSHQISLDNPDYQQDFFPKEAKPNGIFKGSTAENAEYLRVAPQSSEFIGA

By IC50 is commonly meant the midpoint of a concentration-inhibition curve. Lower therefore signals higher potency. With `C=CC(=O)N[C@@H]1C[C@H](C)CN(c2ccc3ncnc(Nc4ccc(Oc5ccc6c(c5)nnn6C)c(C)c4F)c3n2)C1` (single isomer, unassigned) [Compound 336], the IC50 is no less than 1000 nM.

As for `C=CC(=O)N1CCN(c2ncc3ncnc(Nc4ccc(Oc5ccc6c(c5)nnn6C)c(F)c4F)c3n2)CC1` [Compound 10, 1-(4-(8-((2,3-difluoro-4-((1-methyl-1H-benzo[d][1,2,3]triazol-5-yl)oxy)phenyl)amino)pyrimido[5,4-d]pyrimidin-2-yl)piperazin-1-yl)prop-2-en-1-one], the IC50 lay within 100 to 500 nM. As for `C=CC(=O)N1CCN(c2ccc3ncnc(Nc4ccc(Oc5cc6ncnn6cn5)c(C)c4)c3n2)CC1(C)C` [Compound 328, 1-(4-(4-((4-([1,2,4]triazolo[1,5-c]pyrimidin-7-yloxy)-3-methylphenyl)amino)pyrido[3,2-d]pyrimidin-6-yl)-2,2-dimethylpiperazin-1-yl)prop-2-en-1-one], the figure is less than 50 nM; as for `C=C(F)C(=O)N1CCN(c2ncc3ncnc(Nc4ccc(Oc5ccc6c(c5)nnn6C)c(C)c4)c3n2)C[C@@H]1CF` (single isomer, unassigned) [Compound 218], no less than 1000 nM; as for `C=C(COC)C(=O)N1C2CC1CN(c1ncc3ncnc(Nc4ccc(Oc5ccc6c(c5)nnn6C)c(C)c4)c3n1)C2` [Compound 213, 2-(methoxymethyl)-1-(3-(8-((3-methyl-4-((1-methyl-1H-benzo[d][1,2,3]triazol-5-yl)oxy)phenyl)amino)pyrimido [5,4-d]pyrimidin-2-yl)-3,6-diazabicyclo[3.1.1]heptan-6-yl)prop-2-en-1-one], no less than 1000 nM. As for `C=CC(=O)N[C@H]1C[C@@H](C)CN(c2ncc3ncnc(Nc4ccc(Oc5ccc6c(c5)nnn6C)c(C)c4F)c3n2)C1` (single isomer, unassigned) [Compound 204], the figure is 50 to 100 nM. As for `C=CC(=O)N[C@]1(C)CCN(c2ncc3ncnc(Nc4ccc(Oc5ccc6c(c5)nnn6C)c(C)c4F)c3n2)C1` [Compound 161, (R)-N-(1-(8-((2-fluoro-3-methyl-4-((1-methyl-1H-benzo[d][1,2,3]triazol-5-yl)oxy)phenyl)amino)pyrimido[5,4-d]pyrimidin-2-yl)-3-methylpyrrolidin-3-yl)acrylamide], the figure is less than 50 nM; as for `C=CC(=O)N1CCN(c2nc3c(Nc4ccc(Oc5ccc6c(c5)nnn6C)c(C)c4)ncnc3cc2F)CC1` [Compound 373, 1-(4-(7-fluoro-4-((3-methyl-4-((1-methyl-1H-benzo[d][1,2,3]triazol-5-yl)oxy)phenyl)amino)pyrido[3,2-d]pyrimidin-6-yl)piperazin-1-yl)prop-2-en-1-one], 100 to 500 nM; as for `C=CC(=O)N1CCN(c2ncc3ncnc(Nc4ccc(Oc5cnn6ccnc6c5)c(C)c4F)c3n2)CC1` [Compound 237, 1-(4-(8-((2-fluoro-4-(imidazo[1,2-b]pyridazin-7-yloxy)-3-methylphenyl)amino)pyrimido[5,4-d]pyrimidin-2-yl)piperazin-1-yl)prop-2-en-1-one], less than 50 nM. Turning to `C=CC(=O)N[C@]1(C)CCCN(c2ncc3ncnc(Nc4ccc(Oc5ccc6c(c5)nnn6C)c(C)c4)c3n2)C1` [Compound 200, (R)-N-(3-methyl-1-(8-((3-methyl-4-((1-methyl-1H-benzo[d][1,2,3]triazol-5-yl)oxy)phenyl)amino)pyrimido[5,4-d]pyrimidin-2-yl)piperidin-3-yl)acrylamide], the IC50 was less than 50 nM. As for `C=CC(=O)N1CCN(c2ccc3ncnc(Nc4ccc(Oc5ccc6c(c5)nnn6C)c(C)c4)c3n2)CC1CF` (stereo not shown) [Compound 313, 1-(2-(fluoromethyl)-4-(4-((3-methyl-4-((1-methyl-1H-benzo[d][1,2,3]triazol-5-yl)oxy)phenyl)amino)pyrido[3,2-d]pyrimidin-6-yl)piperazin-1-yl)prop-2-en-1-one], the figure is less than 50 nM. Consider `C=CC(=O)N1CCN(c2ccc3ncnc(Nc4ccc(Oc5ccc6c(c5)nnn6C)c(C)c4)c3n2)CC12CC2` [Compound 74, 1-(7-(4-((3-methyl-4-((1-methyl-1H-benzo[d][1,2,3]triazol-5-yl)oxy)phenyl)amino)pyrido[3,2-d]pyrimidin-6-yl)-4,7-diazaspiro[2.5]octan-4-yl)prop-2-en-1-one], for which the IC50 is less than 50 nM. As for `C=C(F)C(=O)N1CC=C(c2ccc3ncnc(Nc4ccc(Oc5ccc6c(c5)nnn6C)c(C)c4)c3n2)C1` [Compound 403, 2-fluoro-1-(3-(4-((3-methyl-4-((1-methyl-1H-benzo[d][1,2,3]triazol-5-yl)oxy)phenyl)amino)pyrido[3,2-d]pyrimidin-6-yl)-2,5-dihydro-1H-pyrrol-1-yl)prop-2-en-1-one], the figure is 50 to 100 nM; as for `C=CC(=O)N1CC2(C1)CN(c1ncc3ncnc(Nc4ccc(Oc5ccc6c(c5)nnn6C)c(C)c4F)c3n1)C2` [Compound 23, 1-(6-(8-((2-fluoro-3-methyl-4-((1-methyl-1H-benzo[d][1,2,3]triazol-5-yl)oxy)phenyl)amino)pyrimido [5,4-d]pyrimidin-2-yl)-2,6-diazaspiro[3.3]heptan-2-yl)prop-2-en-1-one], no less than 1000 nM; as for `C=CC(=O)N1CCN(c2ncc3ncnc(Nc4ccc(Oc5ccn6ncnc6c5)c(C)c4)c3c2F)CC1` [Compound 100, 1-(4-(4-((4-([1,2,4]triazolo[1,5-a]pyridin-7-yloxy)-3-methylphenyl)amino)-5-fluoropyrido[3,4-d]pyrimidin-6-yl)piperazin-1-yl)prop-2-en-1-one], 500 to 1000 nM. On to `C=CC(=O)N1CCN(c2ncc3ncnc(Nc4ccc(Oc5cc6ncnn6cc5C)c(C)c4)c3n2)C[C@H]1C` [Compound 182], for which the IC50 was 500 to 1000 nM. As for `C=C(F)C(=O)N1C2C=C(c3ccc4ncnc(Nc5ccc(Oc6ccc7c(c6)nnn7C)c(C)c5)c4n3)CC1CCC2` (stereo not shown) [Compound 406, 2-fluoro-1-(3-(4-((3-methyl-4-((1-methyl-1H-benzo[d][1,2,3]triazol-5-yl)oxy)phenyl)amino)pyrido[3,2-d]pyrimidin-6-yl)-9-azabicyclo[3.3.1]non-2-en-9-yl)prop-2-en-1-one trifluoroacetate], the figure is no less than 1000 nM; as for `C=CC(=O)N[C@H]1CCN(c2ccc3ncnc(Nc4ccc(Oc5ccc6c(c5)nnn6C)c(C)c4F)c3n2)C[C@H]1F` [Compound 281, N-((3R,4S)-3-fluoro-1-(4-((2-fluoro-3-methyl-4-((1-methyl-1H-benzo[d][1,2,3]triazol-5-yl)oxy)phenyl)amino)pyrido[3,2-d]pyrimidin-6-yl)piperidin-4-yl)acrylamide], less than 50 nM; as for `C=CC(=O)N1CCN(c2ncc3ncnc(Nc4ccc(Oc5ccc6c(c5)nnn6C)c(C)c4F)c3n2)CC12CC2` [Compound 8, 1-(7-(8-((2-fluoro-3-methyl-4-((1-methyl-1H-benzo[d][1,2,3]triazol-5-yl)oxy)phenyl)amino)pyrimido [5,4-d]pyrimidin-2-yl)-4,7-diazaspiro[2.5]octan-4-yl)prop-2-en-1-one], less than 50 nM. As for `C=CC(=O)N[C@H]1CN(c2ccc3ncnc(Nc4ccc(Oc5ccc6c(c5)nnn6C)c(C)c4F)c3n2)C[C@@H]1F` [Compound 300, N-((3S,4S)-4-fluoro-1-(4-((2-fluoro-3-methyl-4-((1-methyl-1H-benzo[d][1,2,3]triazol-5-yl)oxy)phenyl)amino)pyrido[3,2-d]pyrimidin-6-yl)pyrrolidin-3-yl)acrylamide], the figure is 100 to 500 nM; as for `C=CC(=O)N1CC2CC1CN2c1ccc2ncnc(Nc3ccc(Oc4ccc5c(c4)nnn5C)c(C)c3)c2n1` (stereo not shown) [Compound 81, 1-(5-(4-((3-methyl-4-((1-methyl-1H-benzo[d][1,2,3]triazol-5-yl)oxy)phenyl)amino)pyrido[3,2-d]pyrimidin-6-yl)-2,5-diazabicyclo[2.2.1]heptan-2-yl)prop-2-en-1-one], less than 50 nM; as for `C=CC(=O)N[C@@H]1[C@@H]2C[C@H]1CN(c1ncc3ncnc(Nc4ccc(Oc5ccc6c(c5)nnn6C)c(C)c4)c3n1)C2` [Compound 208, N-((1R,5S,6s)-3-(8-((3-methyl-4-((1-methyl-1H-benzo[d][1,2,3]triazol-5-yl)oxy)phenyl)amino)pyrimido[5,4-d]pyrimidin-2-yl)-3-azabicyclo[3.1.1]heptan-6-yl)acrylamide], no less than 1000 nM. As for `C=CC(=O)N[C@H]1CN(c2ccc3ncnc(Nc4ccc(Oc5ccc6c(c5)nnn6C)c(C)c4F)c3n2)C[C@H]1F` [Compound 301, N-((3S,4R)-4-fluoro-1-(4-((2-fluoro-3-methyl-4-((1-methyl-1H-benzo[d][1,2,3]triazol-5-yl)oxy)phenyl)amino)pyrido[3,2-d]pyrimidin-6-yl)pyrrolidin-3-yl)acrylamide], the figure is 500 to 1000 nM; as for `C=CC(=O)N[C@@H]1CCCN(c2ccc3ncnc(Nc4cc(C)c(Oc5ccc6c(c5)nnn6C)cc4OC(F)F)c3n2)C1` [Compound 269, (R)-N-(1-(4-((2-(difluoromethoxy)-5-methyl-4-((1-methyl-1H-benzo[d][1,2,3]triazol-5-yl)oxy)phenyl)amino)pyrido[3,2-d]pyrimidin-6-yl)piperidin-3-yl)acrylamide], no less than 1000 nM. In turn, `C=CC(=O)N1CCN(c2ccc3ncnc(Nc4cc(C)c(Oc5cc(F)c6c(c5)ncn6C)cc4OC)c3n2)CC1` [Compound 372, 1-(4-(4-((4-((7-fluoro-1-methyl-1H-benzo[d]imidazol-5-yl)oxy)-2-methoxy-5-methylphenyl)amino)pyrido[3,2-d]pyrimidin-6-yl)piperazin-1-yl)prop-2-en-1-one] came in with an IC50 of 100 to 500 nM.

The record behind these values is US20250129078A1, “ERBB2 INHIBITORS” (Cogent Biosciences, Inc., priority 2023, published 2025).
